pIC50: −log10 of the molar value.
How the values were obtained:
H9 cell or Sup T1 cell = test: Cytotoxicity by trypan blue dye exclusion; format: cell-based; conditions: concentration that causes death of cells by 50%, 0.1µM to 100µM tested
HIV-1 protease = molecular target: T1, HIV-1 protease (Human immunodeficiency virus type 1 group M subtype B, UniProt P04585); test: Assay for inhibitory effect on HIV protease (time-dependent inactivation, HPLC readout of oligopeptide substrate cleavage); format: biochemical; conditions: second order rate constant; 2.6nM HIV-1 protease; 50mM sodium acetate, pH 0.5; KINSIM/FITSIM program
T1 construct: addition of 2.6nM of HIV-1 protease
Method: The inhibitory effect on HIV protease of the compounds of the present invention was determined by the following method.
To a buffer solution comprising 50mM sodium acetate, pH 0.5, 1mM dithiothreitol(DTT), 1mM ethylenediamine-tetraacetate (EDTA), 0.75M ammonium sulfate and 0.1% NP 40(NONIGET P-40; Sigma Chemical Co., U.S.A.) was added a measured amount of a compound selected from Compound Nos. 1 to 12 to prepare a preincubation solution. Inhibition reaction was started with the addition of 2.6nM of HIV-1 protease to the preincubation solution. Each of 10µl sample of the reaction solution taken at a given time interval was added to 80µl of assay solution containing […] of reaction substrate in the same buffer solution as above to assay for the residual enzyme activity. In this context, an oligopeptide consisting of 11 amino acids, i.e., H-His-Lys-Ala-Arg-Val-Leu-Phe-(p-NO2)-(Glu-Ala-Ile-Ser-NH2), was used as a reaction substrate, which oligopeptide was to be cleaved in two by the breakage of amide bond between Leu and Phe-(P-NO2) upon the attack of HIV protease. The reaction rate was determined by subjecting the substrate before the reaction and the product after the reaction to HPLC separation and then measuring the relative amount of the product, using the strong absorbance of (p-NO2)-Phe at 280nm. The amounts of reduction in enzyme activity according to the elapsed time were measured and the natural logarithmic values(ln) of the measured amounts were plotted against time to obtain a linear graph and kobs was calculated from the slope of the linear graph.
The inhibition constant was calculated according to the following equation: (1)/(kobs)=(1)/(kina)+(KI)/(kina)(1)/([I]) [formula] wherein: kobs is a rate constant indicating the rate of reduction in enzyme activity according to the elapsed time under the presence of a given concentration of inhibitor, kina is a rate constant indicating the rate of chemical reaction forming covalent bond between an enzyme and an inhibitor in Michaelis-Menten complex, KI is an inhibition constant indicating the dissociation rate of Michaelis-Menten complex into an enzyme and an inhibitor, and [I] means the inhibitor concentration.
The above equation is applicable to an experiment carried out under the condition in which the concentration of inhibitor is far higher than that of enzyme (Steady State Kinetic). […] The inhibition constants KI and kina and second order rate constant kina/KI were obtained by inputting the value of [E]/([E]+[EI]+[EI']) into KINSIM/FITSIM program. In case that second order rate constant kina/KI is larger than 10^9, it is hard to calculate the exact values by KINSIM/FITSIM program [Williams, J.W. and Morrison, J.F., Methods, Enzymol., 63, 437-466([…]); and Zimmerle, C.T. and Frieden, C., J. Biochem., 258, 381-387(1989)].

HIV-1 = test: Anti-viral activity: syncytium formation (Sup T1) or reverse transcriptase assay (H9); format: cell-based; conditions: Human immunodeficiency virus 1, concentration that inhibits the proliferation of HIV by 50%, H9 or Sup T1 cell lines, 200 TCID50 of HIV-1
Method: The anti-viral activity of the compounds of the present invention was determined by measuring the concentration of the compounds that inhibits the proliferation of HIV by 50%(IC50) through a survey for syncytium formation or reverse transcriptase assay.
1 x 10^5 cells of each of H9(ATCC HTB 176) and Sup T1 cell lines were added to the wells of a 24-well microtiter plate and various concentrations of the compounds of the present invention were added thereto. 200 TCID50(200-fold of 50% tissue culture infection dose) of HIV-1 inoculum and rpmi-1640 medium(Sigma Chemical Co., U.S.A) were added successively to the wells and the plate was incubated at 37°C. In case of Sup T1, the number of syncytium formed was investigated after 3 to 9 days. IC50 of each compound was determined by measuring the concentration of inhibitor that can reduce the number of syncytium by 50% compared with those formed in the same condition without the inhibitor.
In case of H9, three-quarters(3/4) of the culture medium in volume was refreshed every 3 days; and after 9 days, 6ml of the culture fluid was taken and 2.5ml of 30% polyethyleneglycol(PEG, M.W. 6000-8000) and 0.4M NaCl were added thereto. The resulting solution was allowed to stand at 0°C overnight to precipitate virus particles. The solution was centrifuged at 2000rpm for 45 minutes, the supernatant was discarded therefrom and the precipitate was diluted with 20µl of a reverse transcriptase suspension buffer(50mM tris-HCl, pH 7.5, 1mM dithiothreitol, 20% glycerol, 0.25M KCl and 0.25% Triton X-100). The resulting suspension was stored in an Effendorf tube at -70°C until used. A procedure of freezing said virus suspension for 2 minutes in dry ice and thawing same at 37°C for 2 minutes was repeated three times and the resulting suspension was centrifuged at 4°C. The resulting supernatant was used in carrying out the reverse transcriptase assay.
10µl of the said viral suspension was added to a solution of: 10µl of buffer solution(250mM tris-HCl, pH 7.5, 37.5mM MgCl2, 0.25% triton X-100), 1.2µl of 200mM dithiothreitol, 5µl of 100µM oligo(dT)-poly(A)(Boeringer Manheim, 12-18 oligomer), 1µl(1µCi) of ^3H-TTP(Thymidinetri-phosphate) and 23.6µl of water; and the resulting mixture was placed at 37°C. After 1 hour, the mixture was poured onto a WHATMAN DEB1 filter and the filter was washed three times with 5ml of 2 x SSC buffer solution(17.53g of sodium chloride, 8.82g of sodium citrate, pH 7.0, 1 liter of water) for about 10 minutes each time and twice with 95% methanol for 10 seconds. The filter was put onto aluminum foil and dried with an infra-red lamp. The amount of radioactivity was counted using a liquid scintillation counter.

Structure (SMILES)	CT50 (H9 cell or Sup T1 cell)	kina/KI (HIV-1 protease)	pIC50 (HIV-1)
CC(C)[C@@H](Cc1ccccc1)NC(=O)OC[C@@H]1O[C@@H]1[C@H](Cc1ccccc1)NC(=O)[C@@H](NC(=O)COc1cccc2cnccc12)C(C)(C)S(C)(=O)=O [Example 10, 4S-[N-(5-isoquinolinyloxymethylenecarbonyl)-β-methanesulfonyl-L-valinyl]amino-(3R,2S)-epoxy-5-phenyl-1-pentyl N-2R-(1-phenyl-3-methylbutyl) carbamate]	>10 µM	10^9 - 10^10 min^-1M^-1	7.92
CC(C)C(NC(=O)OC[C@@H]1O[C@@H]1[C@H](Cc1ccccc1)NC(=O)[C@H](CC(N)=O)NC(=O)c1ccc2ccccc2n1)C(C)C [Example 3]	>10 µM	10^9 - 10^10 min^-1M^-1	6.96
CC(C)[C@@H](Cc1ccccc1)NC(=O)OC[C@@H]1O[C@@H]1[C@H](Cc1ccccc1)NC(=O)[C@@H](NC(=O)c1ccc2ccccc2n1)C(C)(C)S(C)(=O)=O [Example 7, 4S-[N-(2-quinolinecarbonyl)-β-methanesulfony]-L-valinyl]amino-(3R,2S)-epoxy-5-pheny]-1-pentyl N-2S-(1-phenyl-3-methylbutyl) carbamate]	>10 µM	10^9 - 10^10 min^-1M^-1	7.70
CC(C)C(NC(=O)OC[C@@H]1O[C@@H]1[C@H](Cc1ccccc1)NC(=O)[C@@H](NC(=O)COc1cccc2cnccc12)C(C)(C)S(C)(=O)=O)C(C)C [Example 12]	>10 µM	10^9 - 10^10 min^-1M^-1	7.30
CC(C)[C@H](NC(=O)OC[C@@H]1O[C@@H]1[C@H](Cc1ccccc1)NC(=O)[C@@H](NC(=O)COc1cccc2cnccc12)C(C)(C)S(C)(=O)=O)c1ccccc1 [Example 11]	>10 µM	10^9 - 10^10 min^-1M^-1	7.82
CC(C)[C@H](NC(=O)OC[C@@H]1O[C@@H]1[C@H](Cc1ccccc1)NC(=O)[C@H](CC(N)=O)NC(=O)c1ccc2ccccc2n1)c1ccccc1 [Example 2]	>10 µM	10^9 - 10^10 min^-1M^-1	6.89
CC(C)[C@H](NC(=O)OC[C@@H]1O[C@@H]1[C@H](Cc1ccccc1)NC(=O)[C@@H](NC(=O)OCc1ccccc1)C(C)(C)S(C)(=O)=O)c1ccccc1 [Example 5]	>10 µM	10^9 - 10^10 min^-1M^-1	7.30
CC(C)C(NC(=O)OC[C@@H]1O[C@@H]1[C@H](Cc1ccccc1)NC(=O)[C@@H](NC(=O)OCc1ccccc1)C(C)(C)S(C)(=O)=O)C(C)C [Example 6]	>10 µM	10^9 - 10^10 min^-1M^-1	7.30
CC(C)C(NC(=O)OC[C@@H]1O[C@@H]1[C@H](Cc1ccccc1)NC(=O)[C@@H](NC(=O)c1ccc2ccccc2n1)C(C)(C)S(C)(=O)=O)C(C)C [Example 9]	>10 µM	10^9 - 10^10 min^-1M^-1	7.10
CC(C)[C@@H](Cc1ccccc1)NC(=O)OC[C@@H]1O[C@@H]1[C@H](Cc1ccccc1)NC(=O)[C@H](CC(N)=O)NC(=O)c1ccc2ccccc2n1 [Example 1, 4S-[N-(2-quinolinecarbonyl)-L-asparaginyl]amino-(3R,2S)-epoxy-5-phenylpentyl N-2R-(1-phenyl-3-methylbutyl) carbamate]	>10 µM	10^9 - 10^10 min^-1M^-1	6.90
CC(C)[C@@H](Cc1ccccc1)NC(=O)OC[C@@H]1O[C@@H]1[C@H](Cc1ccccc1)NC(=O)[C@@H](NC(=O)OCc1ccccc1)C(C)(C)S(C)(=O)=O [Example 4, 4S-[(N-benzyloxycarbonyl)-β-methanesulfonyl-L-valinyl]amino-(3R,2S)-epoxy-5-phenyl-1-pentyl N-2R-(1-phenyl-3-methylbutyl) carbamate]	>10 µM	10^9 - 10^10 min^-1M^-1	7.82
CC(C)[C@H](NC(=O)OC[C@@H]1O[C@@H]1[C@H](Cc1ccccc1)NC(=O)[C@@H](NC(=O)c1ccc2ccccc2n1)C(C)(C)S(C)(=O)=O)c1ccccc1 [Example 8]	>10 µM	10^9 - 10^10 min^-1M^-1	7.00

Source: EP0812839A1, “Irreversible HIV protease inhibitors, compositions containing same and process for the preparation thereof” (LG Chemical Limited, priority 1996, dated 1997)
